Experimental data taken from US9717703B2, “Emulsion and emulsion preconcentrate compositions comprising omega-3 fatty acids and uses thereof are disclosed” (GLAXOSMITHKLINE LLC, priority 2009, dated 2017).

Assay: Clinical study Part B, two-week repeat dose plasma EPA/DHA pharmacokinetics
Conditions: human, in vivo
Description: Part A comprised single dose administration of emulsion pre-concentrate capsules or liquid emulsion equivalent to 1.68 g LOVAZA®. Part B comprised two-week, repeat dosing of selected doses of the emulsion pre-concentrate capsules. […] Part B was a single blind, randomized, parallel group, placebo controlled study consisting of a 2-week repeat dose period with 3 dose levels of the K85EE emulsion pre-concentrate capsules, and one dose of LOVAZA®. Within each cohort, at least eight healthy subjects were randomized to an active treatment group, and at least 2 subjects were randomized to a matching placebo (1000 mg capsule containing corn oil, NF 994 mg and D-Alpha Tocopherol, USP 6 mg). Data from placebo subjects was pooled for analysis. Subjects, checked into the clinical research unit, participated in a test meal on Day -2 and had 24-hr baseline EPA/DHA profiles on Day -1 and Day 1. Subjects were released from the clinic on Day 2, and returned for daily dosing on Days 3 through 12 (with a brief outpatient visit on Day 6). Subjects checked into the clinic again on the evening of Day 12, and on Day 13 they had 24-hr EPA/DHA profiles collected. Subjects were released from the clinic on Day 14, following procedures including a test meal and triglyceride sampling. In Part B, subjects were assigned to either a) one of 3 dose levels of the K85EE emulsion pre-concentrate capsules, b) LOVAZA®, or c) to placebo to match one of the 4 active treatments. Subjects were blinded as to whether they were receiving an active treatment or the corresponding placebo. The randomization ratio for active:placebo within each cohort was 4:1. Part B treatments are summarized below: The K85EE emulsion pre-concentrate capsules and LOVAZA® were administered as capsules, once daily in the manner described for Part A, and the placebos were administered as for the corresponding active treatment. Subjects were required to fast only on PK sampling days. Plasma EPA and DHA concentrations were determined according to the above method.

Free DHA AUC (0-24 h) Geometric LS Mean, Ref. (Day 1): 5.61 µg·h/mL
Free DHA AUC (0-24 h) Geometric LS Mean, Test (Day 13): 9.40 µg·h/mL
Free DHA Cmax Geometric LS Mean, Ref. (Day 1): 430 ng/mL
Free DHA Cmax Geometric LS Mean, Test (Day 13): 790 ng/mL
Free EPA AUC (0-24 h) Geometric LS Mean, Ref. (Day 1): 1.66 µg·h/mL
Free EPA AUC (0-24 h) Geometric LS Mean, Test (Day 13): 3.22 µg·h/mL
Free EPA Cmax Geometric LS Mean, Ref. (Day 1): 90 ng/mL
Free EPA Cmax Geometric LS Mean, Test (Day 13): 200 ng/mL
Total DHA AUC (0-24 h) Geometric LS Mean, Ref. (Day 1): 810.21 µg·h/mL
Total DHA AUC (0-24 h) Geometric LS Mean, Test (Day 13): 1356.51 µg·h/mL
Total DHA Cmax Geometric LS Mean, Ref. (Day 1): 38290 ng/mL
Total DHA Cmax Geometric LS Mean, Test (Day 13): 65370 ng/mL
Total EPA AUC (0-24 h) Geometric LS Mean, Ref. (Day 1): 251.67 µg·h/mL
Total EPA AUC (0-24 h) Geometric LS Mean, Test (Day 13): 611.34 µg·h/mL
Total EPA Cmax Geometric LS Mean, Ref. (Day 1): 12860 ng/mL
Total EPA Cmax Geometric LS Mean, Test (Day 13): 30840 ng/mL
Substance: omega-3-acid ethyl esters [LOVAZA]
